For 20 molecules, EC50 results are on record in patent US20250206757A1 (GASHERBRUM BIO, INC., priority 2022, published 2025).

For orientation: EC50 means the concentration that produces a half-maximal response. Read a high EC50 as a need for much substance.

For the assay, the target named is GLP-1 Receptor (Homo sapiens, UniProt P43220). In words: GLP-1R agonist cAMP stimulation assay (HEK293/GLP1R/CRE-LUC cells, HTRF cAMP dynamic 2 kit). The note with it: HEK293/CRE-Luc cell line stably expressing the GLP-1 Receptor; 30 min incubation at 37° C. In kind it is cell-based. The method in brief: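 HEK293 cells stably expressing GLP-1R with CRE-Luc, 1000 cells/well in DPBS with 0.5 mM IBMX and 0.10% BSA, exposed to half-log compound dilutions for 30 min at 37 °C. cAMP measured by HTRF (665/615 nm) after 1 h at room temperature.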
Chain of GLP-1 Receptor (P43220 24-463): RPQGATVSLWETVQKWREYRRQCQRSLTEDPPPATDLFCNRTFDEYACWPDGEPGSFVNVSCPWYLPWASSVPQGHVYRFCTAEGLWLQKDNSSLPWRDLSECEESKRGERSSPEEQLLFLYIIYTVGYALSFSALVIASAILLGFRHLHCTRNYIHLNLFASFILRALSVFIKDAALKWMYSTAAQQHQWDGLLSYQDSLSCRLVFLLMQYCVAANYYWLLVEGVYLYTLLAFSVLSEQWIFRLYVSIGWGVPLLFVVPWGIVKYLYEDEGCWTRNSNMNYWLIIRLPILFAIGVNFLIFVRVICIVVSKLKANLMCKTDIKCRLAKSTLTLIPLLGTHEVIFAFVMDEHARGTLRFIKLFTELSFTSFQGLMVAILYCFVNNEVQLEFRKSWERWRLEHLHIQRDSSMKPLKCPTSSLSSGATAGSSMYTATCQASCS
(In TR-FRET formats the signal depends on donor and acceptor labels being close together.)
For the molecule `Fc1cc(Cl)ccc1COc1nc2c(cc1C(F)(F)F)CCN(Cc1nc3cc(-c4nnc(C(F)(F)F)[nH]4)ncc3n1C[C@@H]1CCCO1)C2` [Compound 79, 2-[(4-chloro-2-fluorophenyl)methoxy]-7-[(3-{1[(2S)-oxolan-2-yl]methyl}-6-[5-(trifluoromethyl)-4H-1,2,4-triazol-3-yl]-3H-imidazo[4,5-c]pyridin-2-yl)methyl]-3-(trifluoromethyl)-5,6,7,8-tetrahydro-1,7-naphthyridine], the EC50 is 1 to 300 nM.

Take `COCCn1c(CN2CCc3cc(C(F)(F)F)c(OCc4ccc(Cl)cc4F)nc3C2)nc2cc(-c3nnc(C(F)(F)F)[nH]3)ncc21` [Compound 80, 2-[(4-chloro-2-fluorophenyl)methoxy]-7-{[3-(2-methoxyethyl)-6-[5-(trifluoromethyl)-4H-1,2,4-triazol-3-yl]-3H-imidazo[4,5-c]pyridin-2-yl]methyl}-3-(trifluoromethyl)-5,6,7,8-tetrahydro-1,7-naphthyridine]: the EC50 was 1 to 300 nM.

`CC(c1nc2cc(-c3nnc(C(F)(F)F)[nH]3)ncc2n1C[C@@H]1CCO1)N1CCc2cc(C(F)(F)F)c(OCc3ccc(Cl)cc3F)nc2C1` (stereo partly drawn) [Compound 82, 2-[(4-chloro-2-fluorophenyl)methoxy]-7-[1-(3-{[(2S)-oxetan-2-yl]methyl}-6-[5-(trifluoromethyl)-4H-1,2,4-triazol-3-yl]-3H-imidazo[4,5-c]pyridin-2-yl)ethyl]-3-(trifluoromethyl)-5,6,7,8-tetrahydro-1,7-naphthyridine] returned an EC50 of less than 1 nM.

As to `CC(c1nc2cc(-c3nnc(C(F)(F)F)[nH]3)ncc2n1C[C@@H]1CCO1)N1CCc2cc(C(F)(F)F)c(OCc3c(F)cc(Cl)cc3F)nc2C1` (stereo partly drawn) [Compound 83, 2-[(4-chloro-2,6-difluorophenyl)methoxy]-7-[1-(3-{1[(2S)-oxetan-2-yl]methyl}-6-[5-(trifluoromethyl)-4H-1,2,4-triazol-3-yl]-3H-imidazo[4,5-c]pyridin-2-yl)ethyl]-3-(trifluoromethyl)-5,6,7,8-tetrahydro-1,7-naphthyridine], the 50% effective concentration (EC50) was less than 1 nM.

For the molecule `CC(c1nc2cc(-c3nnc(C#N)[nH]3)ncc2n1C[C@@H]1CCO1)N1CCc2cc(C(F)(F)F)c(OCc3c(F)cc(Cl)cc3F)nc2C1` (stereo partly drawn) [Compound 84, 5-[2-(1-{2-[(4-chloro-2,6-difluorophenyl)methoxy]-3-(trifluoromethyl)-5,6,7,8-tetrahydro-1,7-naphthyridin-7-yl}ethyl)-3-{1[(2S)-oxetan-2-yl]methyl}-3H-imidazo[4,5-c]pyridin-6-yl]-4H-1,2,4-triazole-3-carbonitrile], the EC50 was less than 1 nM.

In the case of `Fc1cc(Cl)ccc1COc1nc2c(cc1C(F)(F)F)CCN(Cc1nc3cc(-c4nnc(S)[nH]4)ccc3n1C[C@@H]1CCO1)C2` [Compound 85, 5-[2-({2-[(4-chloro-2-fluorophenyl)methoxy]-3-(trifluoromethyl)-5,6,7,8-tetrahydro-1,7-naphthyridin-7-yl}methyl)-1-{[(2S)-oxetan-2-yl]methyl}-1H-1,3-benzodiazol-5-yl]-4H-1,2,4-triazole-3-thiol], the EC50 is less than 1 nM.

On to `CSc1nnc(-c2ccc3c(c2)nc(CN2CCc4cc(C(F)(F)F)c(OCc5ccc(Cl)cc5F)nc4C2)n3C[C@@H]2CCO2)[nH]1` [Compound 86, 2-[(4-chloro-2-fluorophenyl)methoxy]-7-({5-[5-(methylsulfanyl)-4H-1,2,4-triazol-3-yl]-1-{[(2S)-oxetan-2-yl]methyl}-1H-1,3-benzodiazol-2-yl}methyl)-3-(trifluoromethyl)-5,6,7,8-tetrahydro-1,7-naphthyridine], for which the EC50 was less than 1 nM.

Regarding `CS(=O)(=O)c1nnc(-c2ccc3c(c2)nc(CN2CCc4cc(C(F)(F)F)c(OCc5ccc(Cl)cc5F)nc4C2)n3C[C@@H]2CCO2)[nH]1` [Compound 87, 2-[(4-chloro-2-fluorophenyl)methoxy]-7-{[5-(5-methanesulfonyl-4H-1,2,4-triazol-3-yl)-1-{[(2S)-oxetan-2-yl]methyl}-1H-1,3-benzodiazol-2-yl]methyl}-3-(trifluoromethyl)-5,6,7,8-tetrahydro-1,7-naphthyridine], the EC50 is 1 to 300 nM.

Molecule `Fc1cc(Cl)ccc1COc1nc2c(cc1C(F)(F)F)CCN(Cc1nc3c(F)c(-c4nnn[nH]4)ccc3n1C[C@@H]1CCO1)C2` [Compound 88, 2-[(4-chloro-2-fluorophenyl)methoxy]-7-[(4-fluoro-1-{[(2S)-oxetan-2-yl]methyl}-5-(1H-1,2,3,4-tetrazol-5-yl)-1H-1,3-benzodiazol-2-yl)methyl]-3-(trifluoromethyl)-5,6,7,8-tetrahydro-1,7-naphthyridine] showed a concentration for a half-maximal effect (EC50) of less than 1 nM.

The molecule `Fc1cc(Cl)cc(F)c1COc1nc2c(cc1C(F)(F)F)CCN(Cc1nc3cc(-c4nnn[nH]4)cnc3n1C[C@@H]1CCO1)C2` [Compound 89, 2-[(4-chloro-2,6-difluorophenyl)methoxy]-7-[(3-{[(2S)-oxetan-2-yl]methyl}-6-(11H-1,2,3,4-tetrazol-5-yl)-3H-imidazo[4,5-b]pyridin-2-yl)methyl]-3-(trifluoromethyl)-5,6,7,8-tetrahydro-1,7-naphthyridine] had an EC50 of less than 1 nM.

`Fc1cc(Cl)cc(F)c1COc1nc2c(cc1C(F)(F)F)CCN(Cc1nc3cc(-c4nnn[nH]4)ncc3n1C[C@@H]1CCO1)C2` [Compound 90, 2-[(4-chloro-2,6-difluorophenyl)methoxy]-7-[(3-{[(2S)-oxetan-2-yl]methyl}-6-(11H-1,2,3,4-tetrazol-5-yl)-3H-imidazo[4,5-c]pyridin-2-yl)methyl]-3-(trifluoromethyl)-5,6,7,8-tetrahydro-1,7-naphthyridine]: the EC50 was less than 1 nM.

Molecule `Cc1cc2c(nc1OCc1c(F)cc(Cl)cc1F)CN(Cc1nc3cc(-c4nnn[nH]4)ncc3n1C[C@@H]1CCO1)CC2` [Compound 91, 2-[(4-chloro-2,6-difluorophenyl)methoxy]-3-methyl-7-[(3-{[(2S)-oxetan-2-yl]methyl}-6-(1H-1,2,3,4-tetrazol-5-yl)-3H-imidazo[4,5-c]pyridin-2-yl)methyl]-5,6,7,8-tetrahydro-1,7-naphthyridine] came in with an EC50 of less than 1 nM.

Turning to `NC(=O)c1ccc2c(c1)nc(CN1CCc3cc(C(F)(F)F)c(OCc4ccc(Cl)cc4F)nc3C1)n2C[C@@H]1CCO1` [Compound 92, 2-({2-[(4-chloro-2-fluorophenyl)methoxy]-3-(trifluoromethyl)-5,6,7,8-tetrahydro-1,7-naphthyridin-7-yl}methyl)-1-{[(2S)-oxetan-2-yl]methyl}-1H-1,3-benzodiazole-5-carboxamide], the EC50 lay within 1 to 300 nM.

The molecule `CS(=O)(=O)NC(=O)c1ccc2c(c1)nc(CN1CCc3cc(C(F)(F)F)c(OCc4ccc(Cl)cc4F)nc3C1)n2C[C@@H]1CCO1` [Compound 93, 2-({2-[(4-chloro-2-fluorophenyl)methoxy]-3-(trifluoromethyl)-5,6,7,8-tetrahydro-1,7-naphthyridin-7-yl}methyl)-N-methanesulfonyl-1-{[(2S)-oxetan-2-yl]methyl}-1H-1,3-benzodiazole-5-carboxamide] yielded an EC50 of less than 1 nM.

`CNC(=O)c1nnc(-c2cc3nc(CN4CCc5cc(C(F)(F)F)c(OCc6ccc(Cl)cc6F)nc5C4)n(C[C@@H]4CCO4)c3cn2)[nH]1` [Compound 94, 5-[2-({2-[(4-chloro-2-fluorophenyl)methoxy]-3-(trifluoromethyl)-5,6,7,8-tetrahydro-1,7-naphthyridin-7-yl}methyl)-3-{[(2S)-oxetan-2-yl]methyl}-3H-imidazo[4,5-c]pyridin-6-yl]-N-methyl-4H-1,2,4-triazole-3-carboxamide] gave an EC50 of less than 1 nM.

Take `CN(C)C(=O)c1nnc(-c2cc3nc(CN4CCc5cc(C(F)(F)F)c(OCc6ccc(Cl)cc6F)nc5C4)n(C[C@@H]4CCO4)c3cn2)[nH]1` [Compound 95, 5-[2-({2-[(4-chloro-2-fluorophenyl)methoxy]-3-(trifluoromethyl)-5,6,7,8-tetrahydro-1,7-naphthyridin-7-yl}methyl)-3-{[(2S)-oxetan-2-yl]methyl}-3H-imidazo[4,5-c]pyridin-6-yl]-N,N-dimethyl-4H-1,2,4-triazole-3-carboxamide]: the EC50 was in the range of 1 to 300 nM.

In the case of `O=c1[nH]nc(-c2cc3nc(CN4CCc5cc(C(F)(F)F)c(OCc6ccc(Cl)cc6F)nc5C4)n(C[C@@H]4CCO4)c3cn2)o1` [Compound 96, 5-[2-({2-[(4-chloro-2-fluorophenyl)methoxy]-3-(trifluoromethyl)-5,6,7,8-tetrahydro-1,7-naphthyridin-7-yl}methyl)-3-{[(2S)-oxetan-2-yl]methyl}-3H-imidazo[4,5-c]pyridin-6-yl]-2,3-dihydro-1,3,4-oxadiazol-2-one], the EC50 was less than 1 nM.

Regarding `O=c1[nH]nc(-c2cc3nc(CN4CCc5cc(C(F)(F)F)c(OCc6ccc(Cl)cc6F)nc5C4)n(C[C@@H]4CCO4)c3cn2)[nH]1` [Compound 97, 3-[2-({2-[(4-chloro-2-fluorophenyl)methoxy]-3-(trifluoromethyl)-5,6,7,8-tetrahydro-1,7-naphthyridin-7-yl}methyl)-3-{[(2S)-oxetan-2-yl]methyl}-3H-imidazo[4,5-c]pyridin-6-yl]-4,5-dihydro-1H-1,2,4-triazol-5-one], the EC50 is less than 1 nM.

`Fc1cc(Cl)ccc1COc1nc2cc(Cc3nc4cc(-c5nnc(C(F)(F)F)[nH]5)ncc4n3C[C@@H]3CCO3)ccc2cc1C(F)(F)F` [Compound 98, 2-[(4-chloro-2-fluorophenyl)methoxy]-7-[(3-{[(2S)-oxetan-2-yl]methyl}-6-[5-(trifluoromethyl)-4H-1,2,4-triazol-3-yl]-3H-imidazo[4,5-c]pyridin-2-yl)methyl]-3-(trifluoromethyl)quinoline] registered an EC50 of less than 1 nM.

`O=C(O)CCn1cc(-c2cnc3c(c2)nc(CN2CCc4cc(C(F)(F)F)c(OCc5ccc(Cl)cc5F)nc4C2)n3C[C@@H]2CCO2)nn1` [Compound 99, 3-{4-[2-({2-[(4-chloro-2-fluorophenyl)methoxy]-3-(trifluoromethyl)-5,6,7,8-tetrahydro-1,7-naphthyridin-7-yl}methyl)-3-{[(2S)-oxetan-2-yl]methyl}-3H-imidazo[4,5-b]pyridin-6-yl]-1H-1,2,3-triazol-1-yl}propanoic acid] displayed an EC50 of 1 to 300 nM.
